Paper PMC11296140, “Cardenolides in the defensive fluid of adult large milkweed bugs have differential potency on vertebrate and invertebrate predator Na^+/K^+-ATPases” (Royal Society Open Science, 2024)

How the values were obtained:
[1] = system: black-headed grosbeak Na^+/K^+-ATPase; test: Na+/K+-ATPase inhibition assay, recombinant black-headed grosbeak enzyme expressed in Sf9 cells; format: biochemical, Pheucticus melanocephalus; settings: for IC50: black-headed grosbeak enzyme, toxicity criteria of Agrawal et al.; for times less inhibitory than for pig: black-headed grosbeak vs porcine enzyme, IC50 fold difference
From the text: Pheucticus melanocephalus (black-headed grosbeak) ATPA1 and ATPB1 genes were synthesised (GeneArt; Invitrogen), codon optimised for Spodoptera frugiperda and cloned by GeneArt (Invitrogen) in pFastBac Dual plasmid with ATP1B1 under p10 promoter and ATP1A1 under PPH promoter. Final plasmids were verified by sequencing (accession number 196465).
(§1) Preparations of Na^+/K^+-ATPases were obtained by homogenization of dissected brains (T. castanotis, zebra finch, and H. membranacea, giant Asian mantid), from commercially obtained enzyme (Sus scrofa domesticus, domestic pig), and expression of ATP1A1 and ATP1B1 subunits of the Na^+/K^+-ATPase of the black-headed grosbeak in insect Sf9 cells (Invitrogen).
Recombinant Na^+/K^+-ATPases were expressed after infection of Sf9 cells with P0 virus stock following the optimized baculovirus expression system described by Scholz and Suppmann. The cells were pelleted by centrifugation, resuspended and sonicated to disrupt membranes and further centrifuged to remove cell debris. Cell membranes were pelleted by ultracentrifugation of the supernatant and finally resuspended in Milli-Q water (electronic supplementary material, method S2). Prior to the Na^+/K^+-ATPase inhibition assay, the black-headed grosbeak protein was verified by SDS–PAGE/Western blotting following the methods of Mohammadi et al. (see the electronic supplementary material, figure S1) and quantified by ELISA (see the electronic supplementary material, method S2d).
(§2) The inhibitory effects of increasing concentrations of four cardenolides (ouabain, glucopyranosyl frugoside, frugoside and gofruside) on the black-headed grosbeak, zebra finch and giant Asian mantids were determined by photometric measurement of inorganic phosphate released from enzymatic ATP hydrolysis while subtracting the background ATPase activity following Petschenka et al. (see the electronic supplementary material, method S2e). The assessment of the inhibitory impact of glucopyranosyl calotropin was limited to the black-headed grosbeak and zebra finch species. This stemmed from the restricted availability of the compound, which only permitted testing on two predator pumps. The inhibitory effects of the five compounds for the porcine ATPase were taken from Rubiano-Buitrago et al. for comparison. All assays were run in three biological replicates, and the average of two technical replicates of each biological replicate was used for subsequent statistical analyses. Raw data are available in the data repository.
For cardenolide inhibition, we converted the calibrated absorbance values to the percentage of non-inhibited Na^+/K^+-ATPase activity based on measurements from the control wells. We fitted inhibition curves by nonlinear fitting using a four-parameter logistic curve, with the top and bottom asymptotes set to 100 and 0, respectively, using the nlsLM function of the minipack.lm library in R [47]. From this we calculated the half maximal inhibitory concentration (IC50) values for each biological replicate. We compared the log10 IC50 values of individual cardenolides for each Na^+/K^+-ATPase enzyme using a linear model, testing the interaction between predator enzyme and cardenolide, and compared the inhibitory capacity of each compound pairwise using Tukey’s post hoc test. We calculated the fold differences between the IC50 values of individual cardenolides for black-headed grosbeak, zebra finch and giant Asian mantid versus the IC50 values on the porcine enzyme.

[2] = system: O. fasciatus target site Na^+/K^+-ATPase; settings: cited from earlier work
[3] = molecular target: giant Asian mantid Na^+/K^+-ATPase; test: Na+/K+-ATPase inhibition assay, giant Asian mantid neural tissue lysate; format: biochemical, Hierodula membranacea; settings: for IC50: giant Asian mantid enzyme, toxicity criteria of Agrawal et al.; for potency compared with the porcine enzyme (in words): giant Asian mantid vs pig, log10 IC50, Tukey post hoc
Protocol: Hierodula membranacea were obtained from M&M Wust—Mantids and More (Muhlheim am Main, Germany). Twenty-five individuals were obtained at the L4 stage and reared in individually double-ventilated boxes (19 × 19 × 19 cm). We provided them with greenbottle fly pupae as a food source, twice per week (two pupae during the nymph stages and three when they reached the adult stage). Mantids were sprayed with water every 2 days for hydration. The mantids were kept in an incubator (Snijders Scientific premium, Tilburg, The Netherlands, with an Imago 500 JUMO controller, Fulda, Germany) at 28°C and 70% humidity with an 18 L : 6 D cycle and a temperature of 18°C at night.
as §1
(§3) We sliced and weighed 5 mg from three different zebra finch brains and dissected the head capsule of five female giant Asian mantids to obtain the central body with intact optic lobes. Neural tissues were transferred to a 1 ml glass grinder (Wheaton Dounce tissue grinder, 1 ml, no. 357538) and homogenized in 500 μl distilled water. Zebra finch homogenates were transferred to a 50 ml Falcon tube on ice and resuspended with 15 ml resuspension buffer (0.25 M sucrose, 2 mM ethylenediaminetetraacetic acid and 25 mM HEPES/Tris; pH 7.0). Samples were sonicated at 85 W (Fisherbrand Model 120 Sonic Dismembrator, no. 12337338) for three 45 s intervals at 0°C, followed by centrifugation for 30 min at 10 000g (Sigma 3–18K, no. 10290) at 4°C to remove debris. The supernatant was collected and further centrifuged for 60 min at 100 000g at 4°C (Optima Max-XP tabletop ultracentrifuge, no. 393315) to isolate the membrane fraction. The pelleted membranes were washed twice and resuspended in 1 ml Milli-Q water (Milli-Q direct water purification system, Merck, no. C85358) and stored at −20°C. Giant Asian mantid homogenates were frozen to −80°C and then freeze-dried overnight and then resuspended in 1800 μl distilled water. Each sample was divided into aliquots of 600 μl and sonicated twice in an ice water bath (Bandelin Sonorex, no. Z659584) for 5 min. Samples were centrifuged at 3000 r.p.m. for 5 min and used to perform functional assays.
as §2
For cardenolide inhibition, we converted the calibrated absorbance values to the percentage of non-inhibited Na^+/K^+-ATPase activity based on measurements from the control wells. We fitted inhibition curves by nonlinear fitting using a four-parameter logistic curve, with the top and bottom asymptotes set to 100 and 0, respectively, using the nlsLM function of the minipack.lm library in R [47]. […]

[4] = molecular target: zebra finch Na^+/K^+-ATPase; test: Na+/K+-ATPase inhibition assay, zebra finch brain lysate; format: biochemical, Taeniopygia castanotis; settings: for IC50: zebra finch enzyme, toxicity criteria of Agrawal et al.
Protocol: Taeniopygia castanotis (zebra finch) brain tissues were obtained from a breeding colony at the University of St Andrews, UK, under Home Office licence 70/8159. Individual brains were dissected and flash-frozen on dry ice before being shipped from St Andrews to the Max Planck Institute for Chemical Ecology, Jena, Germany, where they were kept at −80°C until used in the assays.
as §1, §3, §2
For cardenolide inhibition, we converted the calibrated absorbance values to the percentage of non-inhibited Na^+/K^+-ATPase activity based on measurements from the control wells. We fitted inhibition curves by nonlinear fitting using a four-parameter logistic curve, with the top and bottom asymptotes set to 100 and 0, respectively, using the nlsLM function of the minipack.lm library in R [47]. From this we calculated the half maximal inhibitory concentration (IC50) values for each biological replicate. […]

[5] = zebra finch vs porcine enzyme, IC50 fold difference

| Compound | IC50 [1] | times less inhibitory than for pig [1] | potency towards the bug's own target site (in words) [2] | IC50 [3] | potency compared with the porcine enzyme (in words) [3] | IC50 [4] | times less inhibitory than for pig [4, 5] | times less inhibitory than for pig ([3]; giant Asian mantid vs porcine enzyme, IC50 fold difference) | inhibition of the enzyme (in words) ([4]; sensitive vertebrate enzymes) | potency compared with the porcine enzyme (in words) ([1]; black-headed grosbeak vs pig, log10 IC50, Tukey post hoc) | times more inhibitory than to pig ([3]; giant Asian mantid vs porcine enzyme, IC50 fold difference, not significant at alpha 0.05) | times more inhibitory than to pig [4, 5] | inhibition of the enzyme (in words) ([1]; putatively resistant vertebrate predator) |
| --- | --- | --- | --- | --- | --- | --- | --- | --- | --- | --- | --- | --- | --- |
| C[C@H]1OC(O[C@H]2CC[C@@]3(CO)[C@H](CC[C@@H]4[C@@H]3CC[C@]3(C)[C@@H](C5=CC(=O)OC5)CC[C@]43O)C2)[C@H](O)[C@H](O)[C@@H]1O (stereo partly drawn) [frugoside] | < 10 µM | 6.8 times | the most inhibitory | < 1 µM | not significantly different in potency | < 1 µM | 2.6 times |  |  |  |  |  |  |
| C[C@@H]1O[C@@H](O[C@H]2C[C@@H](O)[C@]3(CO)[C@H]4[C@H](O)C[C@]5(C)[C@@H](C6=CC(=O)OC6)CC[C@]5(O)[C@@H]4CC[C@]3(O)C2)[C@H](O)[C@H](O)[C@H]1O [ouabain, reference compound] |  | 18.9 times |  |  |  |  | 6.8 times | 4.3 times |  |  |  |  |  |
| glucopyranosyl calotropin |  | 15.1 times |  |  |  |  | 3.4 times |  | effective inhibitor |  |  |  |  |
| glucopyranosyl frugoside | < 10 µM |  |  |  |  | < 1 µM |  |  |  | not significantly different in potency | 2.3 times | 28.3 times |  |
| gofruside |  | 352.5 times | among the weakest inhibitors | < 1 µM | did not differ in inhibitory potential |  | 12.7 times |  |  |  |  |  | weakest inhibitor |
